Measurements from patent US11344559B2, “PI3KGAMMA inhibitors” (The Regents of the University of California, priority 2019, dated 2022).

Legend:
Format in all cases: cell-based
[1] = system: IL12b protein levels; test: Secondary screening: IL12b protein ELISA in M1 polarized bone marrow derived macrophages; settings: Z score of IL12b protein (ELISA); 1 μM compound, 24 h, IFNg+LPS (M1) polarized bone marrow derived macrophages
Description: (§1) Primary screening was performed on 507 compounds identified by the above-described computational screening. Bone marrow derived macrophages were plated into 96 well plates at d7 post-harvest and incubated with 1 μM compound and polarization reagents for 24 h. Primary screening was performed on cells polarized with interferon gamma (IFNg)+Lipopolysaccharide (LPS) (M1 polarization). Methods of inducing macrophage polarization are known in the art, e.g., as described in Mosser et al., Curr. Protoc. Immunol. 2008 November; Chapter 14:Unit 14.2. doi: 10.1002/0471142735.im1402s83. After 24 h, cell supernatants were removed and screened for IL12b and CCL2 protein levels using an enzyme linked immunosorbent assay (ELISA). Additionally, viability of polarized macrophages incubated with compounds was measured using an MTT assay, a colorimetric assay that measures cell metabolic activity by quantifying NAD(P)H-dependent cellular oxidoreductase reduction of the tetrazolium dye MTT 3-(4,5-dimethylthiazol-2-yl)-2,5-diphenyltetrazolium bromide to its insoluble purple colored formazan. Compounds that increased IL12b protein levels or decreased CCL2 protein levels and reduced viability less than 10% were selected for secondary screening. Secondary screening was performed as described for primary screening with a subset of 141 of the original compounds.

[2] = system: CCL2 protein levels; test: Secondary screening: CCL2 protein ELISA in M1 polarized bone marrow derived macrophages; settings: Z score of CCL2 protein (ELISA); 1 μM compound, 24 h, IFNg+LPS (M1) polarized bone marrow derived macrophages
Description: as §1

[3] = system: Arginase-1 expression; test: RNA screening: Arginase-1 expression in M2 (IL-4) polarized macrophages, quantitative RT-PCR; settings: Macrophage; mRNA vs control; 1 μM compound 1 h before IL-4 (M2) polarization, mRNA harvested 6 h post-stimulation; read-out: RNA Screening IL-4 Arg 1
Description: (§2) Compounds with the highest activity levels in the primary and secondary screening assays were tested for their effects on transcription of inflammatory cytokines after M1 (IFNg+LPS) and M2 (IL-4) macrophage polarization. Bone marrow derived macrophages were plated into 12 well plates at d7 post-harvest and incubated for 1 h with 1 μM compound prior to polarization. Cell were then polarized by the addition of either IFNgamma+LPS (M1) or IL-4 (M2) and mRNA was harvested 6 h post-stimulation. Quantitative RT-PCR was used to determine the levels of IL-1beta expression in M1 polarized macrophages and of Arginase-1 and TGF-beta expression in M2 polarized macrophages. Compounds were selected from RNA screening that increased IL-1beta expression or decreased Arginase-1 or TGF-beta expression.

[4] = system: IL-1beta expression; test: RNA screening: IL-1beta expression in M1 (IFNg+LPS) polarized macrophages, quantitative RT-PCR; design: key: −: significant decrease in mRNA vs control (mRNA levels above 50% of control); −−: significant decrease in mRNA vs control (mRNA levels below 50% of control); +: significant increase in mRNA vs control; =: no significant change vs control; settings: mRNA vs control; 1 μM compound 1 h before IFNgamma+LPS (M1) polarization, mRNA harvested 6 h post-stimulation
Description: as §2

[5] = system: IL12b protein levels; test: Primary screening: IL12b protein ELISA in M1 polarized bone marrow derived macrophages; settings: Z score of IL12b protein (ELISA); 1 μM compound, 24 h, IFNg+LPS (M1) polarized bone marrow derived macrophages
Description: as §1

[6] = system: CCL2 protein levels; test: Primary screening: CCL2 protein ELISA in M1 polarized bone marrow derived macrophages; settings: Z score of CCL2 protein (ELISA); 1 μM compound, 24 h, IFNg+LPS (M1) polarized bone marrow derived macrophages
Description: as §1

[7] = system: IL12b protein levels; test: IL12b protein expression (ELISA) after M1 polarization with bulk synthesized compounds; settings: 10 micromolar compound 1 h before IFNgamma+LPS (M1) polarization, supernatants 24 h post-stimulation, read-out: IL12B protein expression (Percent of Control)
Description: Compounds with the highest activity levels in the primary, secondary and tertiary screening assays were resynthesized in bulk and then tested for their effects on protein expression of inflammatory cytokines after M1 (IFNg+LPS) macrophage polarization. Bone marrow derived macrophages were plated into 12 well plates at d7 post-harvest and incubated for 1 h with 10 micromolar compound prior to polarization in the presence of bulk synthesized compounds 1-14. Cells were then polarized by the addition of either IFNgamma+LPS (M1) and cell supernatants were harvested 24 h post-stimulation. Methods of inducing macrophage polarization are known in the art, e.g., as described in Mosser et al., Curr. Protoc. Immunol. 2008 November; Chapter 14:Unit 14.2. doi: 10.1002/0471142735.im1402s83. After 24 h, cell supernatants were removed and screened for IL12b protein levels using an enzyme linked immunosorbent assay (ELISA). Increases in IL12b protein levels induced by compounds were recorded as percent increase in IL12b protein expression compared to IL12b expression in the absence of compounds.

[8] = system: TGF-beta expression; test: RNA screening: TGF-beta expression in M2 (IL-4) polarized macrophages, quantitative RT-PCR; design: key: −: significant decrease in mRNA vs control (mRNA levels above 50% of control); −−: significant decrease in mRNA vs control (mRNA levels below 50% of control); +: significant increase in mRNA vs control; =: no significant change vs control; settings: mRNA vs control; 1 μM compound 1 h before IL-4 (M2) polarization, mRNA harvested 6 h post-stimulation
Description: as §2

CCC(=O)N1CCC(c2ccc3c(c2)OCO3)C(O)C1 (stereo not drawn) [Compound 15, 1-(4-(benzo[d][1,3]dioxol-5-yl)-3-hydroxypiperidin-1-yl)propan-1-one]
Secondary Screen ZIL12b [1]: 0.25 | Secondary Screen ZCCL2 [2]: −0.95 | mrna remaining at 1 µM [3]: < 50% | RNA Screening Ifng + LPS Il1b [4]: +

CCc1cc(NCCc2csc(N)n2)n2nc(C)c(C)c2n1 [Compound 4, N-[2-(2-amino-1,3-thiazol-4-yl)ethyl]-5-ethyl-2,3-dimethylpyrazolo[1,5-a]pyrimidin-7-amine]
Primary Screen ZIL12b [5]: 1.46 | Primary Screen ZCCL2 [6]: 1.08 | Secondary Screen ZIL12b [1]: 0.58 | Secondary Screen ZCCL2 [2]: −1.61 | activity at 10 µM [7]: 92%

CN(C)c1cccc(C(=O)N2CCC3(CC2)CC(C(=O)O)N(C)C3)c1 (stereo not drawn) [Compound 13, 8-[3-(dimethylamino)benzoyl]-2-methyl-2,8-diazaspiro[4.5]decane-3-carboxylic acid]
activity at 10 µM [7]: 125%

OCCc1cn(C2CCN(Cc3cccnc3)CC2)nn1 [Compound 11, 2-{1-[1-(3-pyridinylmethyl)-4-piperidinyl]-1H-1,2,3-triazol-4-yl}ethanol]
Primary Screen ZIL12b [5]: −1.17 | Primary Screen ZCCL2 [6]: −2.99 | Secondary Screen ZIL12b [1]: 2.04 | Secondary Screen ZCCL2 [2]: −1.46 | mrna remaining at 1 µM [3]: < 50% | RNA Screening IL-4 Tgfb [8]: − (significant decrease in mRNA vs control (mRNA levels above 50% of control)) | RNA Screening Ifng + LPS Il1b [4]: + | activity at 10 µM [7]: 127%

CCc1n[nH]c(SCC(=O)N2CCC3(CC2)CC(C(=O)O)N(C)C3)n1 (stereo not drawn) [Compound 12, 8-{[(3-ethyl-1H-1,2,4-triazol-5-yl)thio]acetyl}-2-methyl-2,8-diazaspiro[4.5]decane-3-carboxylic acid]
activity at 10 µM [7]: 133%

COc1cccc2ccc(-c3ccc(N)nc3)nc12 [Compound 2, 5-(8-methoxyquinolin-2-yl)pyridin-2-amine]
Secondary Screen ZIL12b [1]: 0.81 | Secondary Screen ZCCL2 [2]: 0.8 | mrna remaining at 1 µM [3]: > 50% | RNA Screening IL-4 Tgfb [8]: − (significant decrease in mRNA vs control (mRNA levels above 50% of control)) | RNA Screening Ifng + LPS Il1b [4]: +

CC(C)NC(=O)NCC1CCCN(Cc2ccc3c(c2)OCCO3)C1 (stereo not drawn) [Compound 6, N-{[1-(2,3-dihydro-1,4-benzodioxin-6-ylmethyl)piperidin-3-yl]methyl}-N′-isopropylurea]
Primary Screen ZIL12b [5]: 1.96 | Primary Screen ZCCL2 [6]: 0.94 | Secondary Screen ZIL12b [1]: 2.4 | Secondary Screen ZCCL2 [2]: 0.16 | mrna remaining at 1 µM [3]: > 50% | RNA Screening IL-4 Tgfb [8]: − (significant decrease in mRNA vs control (mRNA levels above 50% of control)) | RNA Screening Ifng + LPS Il1b [4]: + | activity at 10 µM [7]: 120%

CCc1n[nH]c(SCC(=O)NCCC(=O)Nc2nccs2)n1 [Compound 3, 3-({[(3-ethyl-1H-1,2,4-triazol-5-yl)thio]acetyl}amino)-N-1,3-thiazol-2-ylpropanamide]
Secondary Screen ZIL12b [1]: 1.56 | Secondary Screen ZCCL2 [2]: 1.33 | mrna remaining at 1 µM [3]: > 50% | RNA Screening IL-4 Tgfb [8]: = | RNA Screening Ifng + LPS Il1b [4]: =

CNc1ncccc1C(=O)N1CCC2(CC1)CC(C(=O)O)N(C)C2 (stereo not drawn) [Compound 14, 2-methyl-8-{[2-(methylamino)-3-pyridinyl]carbonyl}-2,8-diazaspiro[4.5]decane-3-carboxylic acid]
activity at 10 µM [7]: 122%

CC(O)c1cn(CC2CCN(C(=O)c3cscn3)CC2)nn1 (stereo not drawn) [Compound 7, 1-(1-{[1-(1,3-thiazol-4-ylcarbonyl)-4-piperidinyl]methyl}-1H-1,2,3-triazol-4-yl)ethanol]
Primary Screen ZIL12b [5]: 0.38 | Primary Screen ZCCL2 [6]: −1.62 | Secondary Screen ZIL12b [1]: 1.58 | Secondary Screen ZCCL2 [2]: −1.5 | mrna remaining at 1 µM [3]: < 50% | RNA Screening IL-4 Tgfb [8]: −− (significant decrease in mRNA vs control (mRNA levels below 50% of control)) | RNA Screening Ifng + LPS Il1b [4]: + | activity at 10 µM [7]: 114%

O=C(O)c1nc[nH]c1C(=O)N1CCN(c2ccccn2)CC1 [Compound 9, 5-[(4-pyridin-2-ylpiperazin-1-yl)carbonyl]-1H-imidazole-4-carboxylic acid]
Primary Screen ZIL12b [5]: 0.54 | Primary Screen ZCCL2 [6]: −5.07 | Secondary Screen ZIL12b [1]: 0.92 | Secondary Screen ZCCL2 [2]: −1.53 | mrna remaining at 1 µM [3]: > 50% | RNA Screening IL-4 Tgfb [8]: + | RNA Screening Ifng + LPS Il1b [4]: + | activity at 10 µM [7]: 131%

CC(=O)N1CC2(CCN(S(C)(=O)=O)CC2)CC1C(=O)O (stereo not drawn) [Compound 8, 2-acetyl-8-(methylsulfonyl)-2,8-diazaspiro[4.5]decane-3-carboxylic acid]
Primary Screen ZIL12b [5]: 0.13 | Primary Screen ZCCL2 [6]: −3.6 | Secondary Screen ZIL12b [1]: 0.74 | Secondary Screen ZCCL2 [2]: −1.79 | activity at 10 µM [7]: 118%

O=C(O)CCc1cc2n(n1)CCCN(Cc1c[nH]nc1C(=O)O)C2 [Compound 16, 4-((2-(2-carboxyethyl)-7,8-dihydro-4H-pyrazolo[1,5-a][1,4]diazepin-5(6H)-yl)methyl)-1H-pyrazole-3-carboxylic acid]
Secondary Screen ZIL12b [1]: 0.56 | Secondary Screen ZCCL2 [2]: −0.84 | mrna remaining at 1 µM [3]: < 50% | RNA Screening Ifng + LPS Il1b [4]: +

CCCn1cc(NC(=O)NCc2nn(C)c3ccc(C)cc23)nn1 [Compound 1, N-[(1,5-dimethyl-1H-indazol-3-yl)methyl]-N′-(1-propyl-1H-1,2,3-triazol-4-yl)urea]
Primary Screen ZIL12b [5]: 0.93 | Primary Screen ZCCL2 [6]: −1.85 | Secondary Screen ZIL12b [1]: 1.05 | Secondary Screen ZCCL2 [2]: −0.72 | activity at 10 µM [7]: 134%

CC(=O)N1CCN(Cc2cnn(-c3ccccc3Cl)c2)CC(O)C1 (stereo not drawn) [Compound 10, 1-acetyl-4-{[1-(2-chlorophenyl)-1H-pyrazol-4-yl]methyl}-1,4-diazepan-6-ol]
Primary Screen ZIL12b [5]: 0.55 | Primary Screen ZCCL2 [6]: −1.59 | Secondary Screen ZIL12b [1]: 1.64 | Secondary Screen ZCCL2 [2]: −0.36 | mrna remaining at 1 µM [3]: < 50% | RNA Screening IL-4 Tgfb [8]: −− (significant decrease in mRNA vs control (mRNA levels below 50% of control)) | RNA Screening Ifng + LPS Il1b [4]: = | activity at 10 µM [7]: 121%

CC(=O)N1CCCn2nc(CNc3nc4ccccc4s3)cc2C1 [Compound 5, N-[(5-acetyl-5,6,7,8-tetrahydro-4H-pyrazolo[1,5-a][1,4]diazepin-2-yl)methyl]-1,3-benzothiazol-2-amine]
Primary Screen ZIL12b [5]: 1.64 | Primary Screen ZCCL2 [6]: 1.04 | Secondary Screen ZIL12b [1]: 0.72 | Secondary Screen ZCCL2 [2]: −1.33 | activity at 10 µM [7]: 127%
